Measurements: article PMC11599453 (The Journal of Biological Chemistry, 2024)
Changes are numbered by the printed parent chain. Where “and” joins values, the source holds several entries; their conditions need not be identical. Equal entries are not always repeated. Structures can show the parent of a compound that is named as a salt.

Columns and labels:
CRISP2 [1] = target: T1, CRISP2 (Homo sapiens, UniProt P16562); experiment: Microscale thermophoresis (MST) binding to fluorescently labeled CRISP2
T1 sequence (P16562 22-243): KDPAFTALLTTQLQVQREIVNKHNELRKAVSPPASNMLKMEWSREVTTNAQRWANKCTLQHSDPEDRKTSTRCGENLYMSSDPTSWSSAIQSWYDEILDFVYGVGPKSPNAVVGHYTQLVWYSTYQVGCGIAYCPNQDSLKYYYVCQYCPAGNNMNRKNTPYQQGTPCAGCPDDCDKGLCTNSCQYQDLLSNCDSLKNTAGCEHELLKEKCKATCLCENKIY
Method: (§1) MST is based on the diffusion of a fluorescently labeled molecule along a microscopic temperature gradient. In this assay, the free protein diffuses faster than its ligand-bound form. Ligands can range from small ions to low molecular weight compounds, liposomes, and even entire viruses ([35], [39], [40], [41]).
(§2) To assess protein-protein and protein-lipid interactions, MST experiments were performed using a Monolith NT.115 (Nanotemper Technologies). […] Samples were loaded into MST standard capillaries, and MST measurements were performed using an 80% laser power setting. The dissociation constant Kd was obtained by plotting the fraction bound against the logarithm of ligand concentration, using Prism software to fit a binding curve to the data point using the "one site specific" binding option. All MST measurements were performed in triplicate, with each set of experiments including a negative control to rule out nonspecific binding.

CRISP2 [2] = target: T2, CRISP2 (Homo sapiens, UniProt P16562); experiment: as above; settings: Kd of cholesterol sulfate binding by CRISP2 in the presence of Ig1, MST; CRISP2-Ig1
T2 sequence (P16562 22-243): T1 sequence (P16562 22-243)
T2 sequence (P04217 with tags, fused parts or gaps partner): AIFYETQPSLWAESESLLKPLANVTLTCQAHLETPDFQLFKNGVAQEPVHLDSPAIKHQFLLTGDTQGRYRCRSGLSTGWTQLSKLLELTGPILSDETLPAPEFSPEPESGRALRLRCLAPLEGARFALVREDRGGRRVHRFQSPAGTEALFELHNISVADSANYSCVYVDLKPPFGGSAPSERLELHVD
Method: as §1, §2

CRISP2^L98G Y99P = target: T3, CRISP2^L98G Y99P (Homo sapiens, UniProt P16562, L98G/Y99P); experiment: MST binding to labeled CRISP2 L98G Y99P mutant
T3 construct: made in house; host or cells: E. coli BL21
T3 sequence (P16562 22-243 L98G/Y99P): T1 sequence (P16562 22-243) with L77G, Y78P
Method: as §2

A1BG = target: T4, A1BG (Homo sapiens, UniProt P04217); experiment: MST lipid binding to A1BG; settings: A1BG alone
T4 construct: made in house; host or cells: E. coli BL21
T4 sequence (P04217 22-495): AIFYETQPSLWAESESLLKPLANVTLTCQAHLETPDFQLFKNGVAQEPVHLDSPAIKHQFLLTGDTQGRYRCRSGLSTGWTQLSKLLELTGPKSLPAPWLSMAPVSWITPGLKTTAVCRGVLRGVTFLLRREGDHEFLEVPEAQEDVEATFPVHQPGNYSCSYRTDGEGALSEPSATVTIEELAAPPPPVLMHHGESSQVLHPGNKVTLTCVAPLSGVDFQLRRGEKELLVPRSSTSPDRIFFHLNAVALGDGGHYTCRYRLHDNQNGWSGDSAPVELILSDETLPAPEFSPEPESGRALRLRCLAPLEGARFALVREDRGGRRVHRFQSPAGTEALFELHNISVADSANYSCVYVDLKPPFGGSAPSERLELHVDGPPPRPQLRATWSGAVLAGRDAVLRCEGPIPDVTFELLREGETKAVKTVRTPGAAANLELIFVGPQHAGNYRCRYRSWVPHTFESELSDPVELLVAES
Method: as §2

[3] = target: CRISP2 (cysteine-rich secretory protein 2), purified, fluorescently labeled (UniProt P16562); experiment: MST; 100 nM RED-tris-NTA-labeled CRISP2 (or L98G Y99P mutant) mixed with a serial dilution of unlabeled A1BG or Ig domain; 20 mM Tris pH 7.5, 30 mM NaCl, 0.05% Triton X-100; Monolith NT.115, 80% laser power; one site specific fit; triplicates

Compound: CC(C)CCC[C@@H](C)[C@H]1CC[C@H]2[C@@H]3CC=C4C[C@@H](OS(=O)(=O)O)CC[C@]4(C)[C@H]3CC[C@]12C [cholesterol sulfate]
- Kd (CRISP2 [1]; Kd of cholesterol sulfate binding by CRISP2 + EDTA + MgCl2, MST, EDTA 5 mM, MgCl2 10 mM): 70 ± 20 nM
- Kd (CRISP2 [1]; Kd of cholesterol sulfate binding by CRISP2, MST, CRISP2 alone): 3210 nM and 2630 nM
- Kd (CRISP2 [1]; Kd of cholesterol sulfate binding by CRISP2 in the presence of Ig4, MST, CRISP2-Ig4): 2050 ± 760 nM
- Kd of cholesterol sulfate binding by CRISP2 in the presence of A1BG (CRISP2 [1]; MST, equimolar concentration of A1BG): blocked
- Kd (CRISP2 [2]): 4000 ± 1980 nM
- Kd of cholesterol sulfate binding by CRISP2 L98G Y99P in the presence of Ig3 (CRISP2^L98G Y99P): inhibited

Compound: CCCCCCCCCCCCCCCC(=O)O [palmitic acid]
- Kd (CRISP2 [1]; Kd of palmitic acid binding by CRISP2, MST, CRISP2 alone): 64600 ± 20700 nM
- Kd (CRISP2 [1]; Kd of palmitic acid binding by CRISP2 in the presence of A1BG, MST, CRISP2+A1BG): 70000 ± 22700 nM
- Kd of palmitic acid binding by A1BG (A1BG): did not bind

Compound: Ig1 domain of A1BG, purified (domain or fragment)
- Kd [3]: 38.7 nM

Compound: Ig3 domain of A1BG, purified (domain or fragment)
- Kd [3]: 13.8 nM
